Measured values as given in PMC7648750, “In vitro and in vivo BNCT investigations using a carborane containing sulfonamide targeting CAIX epitopes on malignant pleural mesothelioma and breast cancer cells” (Scientific Reports, 2020).

Legend:
[1] = clinical applications; no reference given; cited from earlier work
[2] = system: AB22 cells; test: MTT cell vitality assay; type: cell-based, mouse; settings: AB22, 24 h, normoxia, Fig. 3
Experimental: (§1) The MTT assay is based on the reduction in the mitochondria of metabolically active cells by succinate dehydrogenase obtaining a precipitation of purple formazan crystal. The assay was carried out using the same protocol reported by Azzi et al[42]. Briefly, AB22, ZL34 and MCF7 cells were seeded at a density of 7 × 10^3, 5 × 10^3 and 1 × 10^4 cells per well, respectively, in a 96-well microtiter plate. After 24 h at 37 °C and 5% CO2, they were incubated with increasing concentration of CA-SF or AZ for 24 h in a condition of normoxia at 37 °C and 5% CO2 by adding stock solutions in dimethyl sulfoxide (DMSO). In all the conditions the concentration of DMSO during the cell incubation was maintained under 0.25% (v/v) in cell medium. After the incubation, the medium was removed and each well was incubated with thiazolyl blue tetrazolium bromide (Sigma) dissolved in the medium at a concentration of 0.45 mg/mL for 4 h at 37 °C and 5% CO2. Then, after medium elimination, 150 µL of DMSO were added into each well to solubilise the formazan salt crystals produced by the metabolism of live cells and the microplate was incubated at room temperature (RT) for 30 min. Finally, absorbance was measured at 570 nm using an iMark microplate reader (Biorad). Cell vitality was reported as the percentage of […] cells observed in the treated samples relative to that observed in the non-treated control cells.

[3] = system: ZL34 cells; test: MTT cell vitality assay; type: cell-based, human; settings: ZL34, 24 h, normoxia, Fig. 3
Experimental: as §1

[4] = system: MCF7 cells; test: MTT cell vitality assay; type: cell-based, human; settings: MCF7, 24 h, normoxia, Fig. 3
Experimental: as §1

Row | Compound | boron concentration ratio between tumour and normal tissues [1] | percentage of viable cells with increasing concentration (MTT) [2] | percentage of viable cells with increasing concentration (MTT) [3] | percentage of viable cells with increasing concentration (MTT) [4]
1 | sodium mercaptoundecaidro-closo-dodecaborate [BSH] | 3–5 | – | – | –
2 | CC(=O)Nc1nnc(S(N)(=O)=O)s1 [AZ, 5-acetamido-1,3,4-thiadiazole-2-sulfonamide, reference compound] | – | negligible | negligible | negligible
3 | N[C@@H](Cc1ccc(B(O)O)cc1)C(=O)O [BPA, L-para-boronphenylalanine] | 3–5 | – | – | –
